# Measurements: PubChem BioAssay (NCI)
# Values joined by “and” are separate entries in the source; they are usually repeats but may differ in a detail not shown here. Equal values may be shown once.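 A five-concentration, 48-hour dose response in 96-well plates underlies each endpoint, interpolated linearly between surrounding concentrations. Abbreviation: GI50, concentration required for 50% inhibition of growth. TGI marks complete inhibition of growth.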
# Columns and labels:
# Test in all cases: DTP human tumour cell line panel, 48 h
# IGROV1 ovarian = test system: IGROV1 ovarian
# SF-539 CNS = test system: SF-539 CNS
# NCI-H226 lung = test system: NCI-H226 lung
# M14 melanoma = test system: M14 melanoma
# LOX IMVI melanoma = test system: LOX IMVI melanoma
# K-562 leukemia = test system: K-562 leukemia
# MOLT-4 leukemia = test system: MOLT-4 leukemia
# HCT-15 colon = test system: HCT-15 colon
# NCI-H23 lung = test system: NCI-H23 lung
# HL-60(TB) leukemia = test system: HL-60(TB) leukemia
Compound,GI50 (IGROV1 ovarian),TGI (IGROV1 ovarian),GI50 (SF-539 CNS),TGI (SF-539 CNS),GI50 (NCI-H226 lung),TGI (NCI-H226 lung),GI50 (M14 melanoma),TGI (M14 melanoma),GI50 (LOX IMVI melanoma),TGI (LOX IMVI melanoma),GI50 (K-562 leukemia),TGI (K-562 leukemia),GI50 (MOLT-4 leukemia),TGI (MOLT-4 leukemia),GI50 (HCT-15 colon),TGI (HCT-15 colon),GI50 (NCI-H23 lung),TGI (NCI-H23 lung),GI50 (HL-60(TB) leukemia),TGI (HL-60(TB) leukemia)
CCC[CH2][Sn]1([CH2]CCC)[O]C(=O)c2ccc(N)cc2[O]1,1.51 µM,2.97 µM,0.691 µM,1.94 µM,0.857 µM,2.64 µM,0.576 µM,2.18 µM,0.287 µM,1.45 µM,0.111 µM,8.5 µM,0.254 µM,2.43 µM,0.46 µM,2.21 µM,0.336 µM,1.61 µM,0.105 µM,1.67 µM
COc1ccc(NC(=O)n2nc(/C=C\c3ccc(O)c(OC)c3)cc2/C=C\c2ccc(O)c(OC)c2)cc1,4.49 µM,57 µM,2.35 µM,13.6 µM,10.7 µM,78.6 µM,3.15 µM,41.5 µM,3.95 µM,> 100 µM,2.86 µM,16.9 µM,2.87 µM,13.3 µM,2.98 µM,> 100 µM,3.81 µM,63.8 µM,2.55 µM,6.69 µM
CC[C@@]12C=CCN3CC[C@]4(c5cc(NC(=O)COc6cc(OCC(=O)Nc7cc8c(cc7OC)N(C)[C@H]7[C@@](O)(C(=O)OC)[C@H](OC(C)=O)[C@]9(CC)C=CCN%10CC[C@]87[C@@H]%109)cc7oc(-c8ccccc8)cc(=O)c67)c(OC)cc5N(C)[C@@H]4[C@](O)(C(=O)OC)[C@H]1OC(C)=O)[C@H]32,1.32 µM,3.63 µM,4.62 µM,> 100 µM,4.34 µM,18 µM,6.06 µM,28.7 µM,2.63 µM,10.1 µM,3.86 µM,> 100 µM,2.79 µM,> 100 µM,1.7 µM,12.1 µM,2.15 µM,6.58 µM,20.4 µM,> 100 µM
Clc1ccc2ns[s+]c2c1,,> 100 µM,,37.8 µM,,> 100 µM,,> 100 µM,,> 84 µM,,> 100 µM,,> 100 µM,,> 100 µM,,> 46.4 µM,,> 77.9 µM
COc1ccc2ccccc2c1CN1CCOCCOCCN(Cc2c(OC)ccc3ccccc23)CCOCCOCC1,,> 100 µM,,> 68.8 µM,,> 100 µM,,32.5 µM,,> 100 µM,,> 100 µM,,> 90.1 µM,,> 100 µM,,> 100 µM,,53.4 µM
COc1ccc([C@@H](O)c2cc(-c3ncnc4cc(N5CCOCC5)ccc34)c(F)cc2Cl)nn1,0.469 µM,4.99 µM,2.13 µM,12.7 µM,3.82 µM,60.4 µM,4.91 µM,28.5 µM,2.84 µM,24.8 µM,3.78 µM,> 100 µM,1.08 µM,41.1 µM,3.08 µM,23.2 µM,8 µM,94.6 µM,0.36 µM,17.7 µM
CC1=C(/C=C/C(C)=C/C=C/C(C)=C/C=C/C=C(C)/C=C/C=C(C)/C=C/C2=C(C)C(=O)C(O)CC2(C)C)C(C)(C)CC(O)C1=O (centres undefined),,> 100 µM,,> 100 µM,,> 100 µM,,> 100 µM,,> 100 µM,,> 100 µM,,> 100 µM,,> 100 µM,,> 100 µM,,> 100 µM
CC(=O)c1cccc(-c2cccc(-c3ccn(CCN4CCOCC4)n3)c2)c1,> 20 µM,> 20 µM,> 20 µM,> 20 µM,> 20 µM,> 20 µM,> 20 µM,> 20 µM,> 20 µM,> 20 µM,> 20 µM,> 20 µM,> 20 µM,> 20 µM,> 20 µM,> 20 µM,> 20 µM,> 20 µM,> 20 µM,> 20 µM
Nc1cc2[nH]cnc2c(=O)[nH]1,,> 300 µM,,> 234 µM,,> 212 µM,,> 300 µM,,> 300 µM,,> 300 µM,,> 300 µM,,> 300 µM,,> 300 µM,,178 µM
CCCCCCNC(=O)Oc1ccc(/C(=C(/C)Cc2ccc(OC)cc2)c2ccc(OCCN(C)C)cc2)cc1,4.62 µM,9.6 µM,5.01 µM,9.64 µM,6.18 µM,11.9 µM,6.18 µM,11.5 µM,4.39 µM,8.8 µM,1.1 µM,3.63 µM,5.23 µM,11.5 µM,2.02 µM,6.6 µM,5.28 µM,10.5 µM,4.82 µM,10.3 µM
O=C(O)Cc1ccccc1CCc1ccccc1Cl,,> 100 µM,,> 100 µM,,> 100 µM,,> 100 µM,,> 100 µM,,> 100 µM,,> 100 µM,,> 100 µM,,> 100 µM,,> 100 µM
COc1nc(C)cc2c(=O)n(-c3ccccc3)n(CC(O)CN3CCN(c4ccc(Cl)cc4)CC3)c(=O)c12 (centres undefined),> 50 µM,> 50 µM,22.7 µM,> 50 µM,> 50 µM,> 50 µM,> 50 µM,> 50 µM,> 50 µM,> 50 µM,> 50 µM,> 50 µM,> 50 µM,> 50 µM,> 50 µM,> 50 µM,> 50 µM,> 50 µM,> 50 µM,> 50 µM
COC(=O)[C@]1(C)C(OC)=CC(=O)C2C1[C@H]1CCC[C@@H]21 (some centres undefined),,> 100 µM,,> 100 µM,,> 100 µM,,> 100 µM,,> 100 µM,,> 100 µM,,> 100 µM,,> 100 µM,,> 100 µM,,> 100 µM
COc1cc(/C=C/c2ccc(OC)c(OC)c2OC)cc(OC)c1OC,,83.3 µM,,37 µM,,39.7 µM,,77 µM,,30.8 µM,,> 69.3 µM,,> 62 µM,,> 57.2 µM,,69.2 µM,,> 68 µM
COC(=O)[C@]1(C)CCC[C@@]2(C)[C@@H]3C[C@@H]4[C@H]5C[C@@]3(CC[C@@H]21)C[C@@]45C,,36 µM,,38.7 µM,,30.5 µM,,38.8 µM,,34.9 µM,,19.1 µM,,33.8 µM,,29.7 µM,,28.2 µM,,17.8 µM
COc1cc(C2c3cc4c(cc3[C@@H](OCCN(C)C)C3COC(=O)[C@H]23)OCO4)cc(OC)c1O (some centres undefined),,4.97 µM,,0.702 µM,,0.288 µM,,3.22 µM,,1.27 µM,,> 100 µM,0.0105 µM,0.0878 µM,,3.12 µM,,1.18 µM,,> 100 µM
CCOC(=O)Nc1nc2cc(OCC)ccc2s1,> 91.1 µM,> 100 µM,> 100 µM,> 100 µM,> 100 µM,> 100 µM,8.94 µM,> 100 µM,> 47.4 µM,> 100 µM,3 µM,> 100 µM,31.7 µM,> 100 µM,4.8 µM,> 100 µM,> 100 µM,> 100 µM,4.85 µM,> 100 µM
CC(=O)c1cc(-c2ccccc2N)n(-c2ccc3c(c2)OCO3)c1C,0.529 µM,> 100 µM,0.181 µM,0.487 µM,0.239 µM,6.86 µM,0.279 µM,75 µM,0.297 µM,> 100 µM,0.247 µM,> 100 µM,0.38 µM,> 100 µM,0.296 µM,> 100 µM,0.218 µM,97.6 µM,0.217 µM,0.592 µM
Clc1ccc2c(c1)[nH]c1c2nc2sccn21,,> 100 µM,,> 100 µM,,> 100 µM,,> 100 µM,,> 100 µM,,> 100 µM,,> 100 µM,,> 100 µM,,> 100 µM,,> 100 µM
COc1cc2c(c(OC)c1OC)-c1ccc(O)c(=O)cc1[C@@H](NC(C)=O)CC2,4.76 µM,> 100 µM and 82.4 µM,6.08 µM,45.5 µM and 44 µM,10.5 µM,80 µM and 44 µM,9.54 µM,60.7 µM and 78.2 µM,5.89 µM,> 100 µM and 60.1 µM,6.91 µM,> 100 µM,4.66 µM,45.8 µM and 34.2 µM,5.04 µM,> 100 µM and 28 µM,,39.5 µM,3.31 µM,15.6 µM and 32.7 µM
Cc1cc(=O)oc2cc(OC(=O)N(CCCl)CCCl)ccc12,,> 100 µM,,> 100 µM,,> 100 µM,,> 100 µM,,> 100 µM,,> 100 µM,,> 100 µM,,> 100 µM,,> 100 µM,,> 100 µM
CS(=O)(=O)NNS(=O)(=O)c1ccc(Cl)cc1,,> 100 µM,,> 100 µM,,96.3 µM,,> 100 µM,,> 100 µM,,> 100 µM,,> 100 µM,,> 100 µM,,> 100 µM,,> 100 µM
O=c1cc(-c2ccccn2)[nH]c2cc(F)ccc12,,> 100 µM,,> 100 µM,,> 100 µM,,> 100 µM,,> 100 µM,,> 100 µM,,> 100 µM,,,,> 100 µM,,> 100 µM
